The results in this text go back to patent publication US20070249670A1, “Glycogen Phosphorylase Inhibitor Compounds and Pharmaceutical Compositions Thereof” (SMITHKLINE BEECHAM CORPORATION, priority 2004, published 2007).

In general, IC50 refers to the midpoint of a concentration-inhibition curve. The low end stands for inhibition by little substance, the high end for a need for much substance.

The target in this assay is T1, human liver glycogen phosphorylase a (HLGPa) (Homo sapiens, UniProt P06737).
T1 construct: creating a full-length cDNA fused at the 5′ end to codons for methionine-glycine-alanine-histidine; 6xHis tag (leader Met-Gly-Ala-His6-Gly-Gly) (N); made in house; host or cells: E. coli (bacterial expression plasmid pTXK1007LTev)
T1 sequence (P06737 2-847 limits assumed): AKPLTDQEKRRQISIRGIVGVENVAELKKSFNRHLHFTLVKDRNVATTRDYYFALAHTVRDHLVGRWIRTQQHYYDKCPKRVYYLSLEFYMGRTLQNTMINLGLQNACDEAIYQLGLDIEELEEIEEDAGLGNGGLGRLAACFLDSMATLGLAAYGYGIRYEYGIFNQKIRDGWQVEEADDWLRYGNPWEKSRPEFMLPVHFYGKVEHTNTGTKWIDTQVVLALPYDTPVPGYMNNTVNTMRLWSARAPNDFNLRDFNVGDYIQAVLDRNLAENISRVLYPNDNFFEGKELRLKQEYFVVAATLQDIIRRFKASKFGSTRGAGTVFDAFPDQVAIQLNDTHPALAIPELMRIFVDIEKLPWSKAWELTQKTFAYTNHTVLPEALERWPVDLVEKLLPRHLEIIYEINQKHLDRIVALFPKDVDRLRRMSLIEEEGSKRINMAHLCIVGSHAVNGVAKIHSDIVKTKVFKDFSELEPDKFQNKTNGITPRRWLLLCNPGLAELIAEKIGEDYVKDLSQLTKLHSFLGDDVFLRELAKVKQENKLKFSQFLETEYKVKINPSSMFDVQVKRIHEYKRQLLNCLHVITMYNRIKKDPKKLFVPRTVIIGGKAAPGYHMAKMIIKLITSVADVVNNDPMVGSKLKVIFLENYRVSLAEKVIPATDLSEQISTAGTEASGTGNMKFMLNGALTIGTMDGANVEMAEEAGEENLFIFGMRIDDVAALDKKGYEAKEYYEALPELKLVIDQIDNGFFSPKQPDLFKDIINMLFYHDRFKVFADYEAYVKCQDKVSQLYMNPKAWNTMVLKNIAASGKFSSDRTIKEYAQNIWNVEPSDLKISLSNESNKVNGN
The experiment in a line: Human liver glycogen phosphorylase a enzymatic activity assay (coupled, fluorescent resorufin readout, with and without 10 mM glucose). The class given is biochemical.

[1] abbreviates: human liver glycogen phosphorylase a enzymatic activity assay.
Setting [2] is: human liver glycogen phosphorylase a, table does not say whether with or without 10 mM glucose.

Where a name gives a salt, the structure may show the parent alone.

`Cc1cccc(Cl)c1NC(=O)Nc1cc2ccccc2cc1C(=O)N[C@@H](Cc1c[nH]c2ccccc12)C(=O)O` [Example 65, N-[3-({[(2-chloro-6-methylphenyl)amino]carbonyl}amino)-2-naphthoyl]-L-tryptophan trifluoroacetate]: 270 nM corresponded to half-maximal inhibition under setting [1] (IC50). Same read-out and setting: then `Cc1cc(C)c(NC(=O)Nc2cc(-c3ccc(F)cc3)ccc2C(=O)N[C@H](C(=O)O)[C@@H](C)OC(C)(C)C)c(C)c1` [Example 527, O-(1,1-Dimethylethyl)-N-{[4′-fluoro-3-({[(2,4,6-trimethylphenyl)amino]carbonyl}amino)-4-biphenylyl]carbonyl}-L-threonine], with 3 nM; and `COc1ccc(-c2cc(C(=O)O)c(NC(=O)Nc3c(Cl)cc(OC(F)(F)F)cc3Cl)s2)cc1` [Example 426, 2-{[({2,6-dichloro-4-[(trifluoromethyl)oxy]phenyl}amino)carbonyl]amino}-5-[4-(methyloxy)phenyl]-3-thiophenecarboxylic acid], with 1310 nM; and `COc1cc(NC(=O)Nc2c(C)cccc2Cl)c(C(=O)N[C@@H](CC(=O)O)C(=O)O)cc1OC` [Example 67, N-[2-({[(2-chloro-6-methylphenyl)amino]carbonyl}amino)-4,5-dimethoxybenzoyl]-L-aspartic acid], with 19800 nM. Still for that read-out and setting: to `Cc1cccc(C)c1NC(=O)Nc1cc2ccccc2cc1C(=O)NCCC(=O)O` [Example 163, N-[3-({[(2,6-dimethylphenyl)amino]carbonyl}amino)-2-naphthoyl]-beta-alanine] belongs 509 nM. `COC(=O)[C@H](CC(=O)O)NC(=O)c1ccc(-c2ccc(OC)cc2)cc1NC(=O)Nc1c(C)cc(C)cc1C` [Example 372, (3S)-4-(methyloxy)-3-({[4′-(methyloxy)-3-({[(2,4,6-trimethylphenyl)amino]carbonyl}amino)-4-biphenylyl]carbonyl}amino)-4-oxobutanoic acid]: the IC50 under setting [2] came to 990 nM. In turn, `Cc1cc(CC2CC2)cc(C)c1NC(=O)Nc1cc(-c2cccc(F)c2)ccc1C(=O)N[C@H](C(=O)O)[C@@H](C)OC(C)(C)C` [Example 505, N-({3-[({[4-(cyclopropylmethyl)-2,6-dimethylphenyl]amino}carbonyl)amino]-3′-fluoro-4-biphenylyl}carbonyl)-O-(1,1-dimethylethyl)-L-threonine] yielded an IC50 under setting [1] of 3 nM. The same measure, in the same setting: then `Cc1cc(C)c(NC(=O)Nc2cc(-c3ccc(CO)cc3)ccc2C(=O)N[C@H](C(=O)O)C2CCCCC2)c(C)c1` [Example 198, (2S)-Cyclohexyl({[4′-(hydroxymethyl)-3-({[(2,4,6-trimethylphenyl)amino]carbonyl}amino)-4-biphenylyl]carbonyl}amino)ethanoic acid], with 27 nM. Same read-out and setting: then `COc1ccc(-c2cc(C(=O)O)c(NC(=O)Nc3c(Cl)cccc3Cl)s2)cc1` [Example 412, 2-({[(2,6-dichlorophenyl)amino]carbonyl}amino)-5-[4-(methyloxy)phenyl]-3-thiophenecarboxylic acid], with 1040 nM; and `COC(=O)CCNC(=O)c1cc2ccccc2cc1NC(=O)Nc1c(C)cc(C)cc1C` [Example 493, methyl N-{[3-({[(2,4,6-trimethylphenyl)amino]carbonyl}amino)-2-naphthalenyl]carbonyl}-beta-alaninate], with 9860 nM; and `O=C(Nc1sc(-c2ccc(F)cc2)cc1C(=O)N[C@H](C(=O)O)C1CCCCC1)Nc1c(Cl)cccc1Cl` [Example 419, (2S)-cyclohexyl({[2-({[(2,6-dichlorophenyl)amino]carbonyl}amino)-5-(4-fluorophenyl)-3-thienyl]carbonyl}amino)ethanoic acid], with 600 nM.

For the molecule `Cc1cccc(C)c1NC(=O)Nc1cc2ccccc2cc1C(=O)N[C@@H](Cc1ccccc1)C(=O)O` [Example 51, N-[3-({[(2,6-dimethylphenyl)amino]carbonyl}amino)-2-naphthoyl]-L-phenylalanine], the IC50 under setting [1] stood at 680 nM. The IC50 values of the last two molecules are within 1.5-fold of each other. Regarding `Cc1cccc(C)c1NC(=O)Nc1cc(F)c(F)cc1C(=O)N[C@H](C(=O)O)C1CCCCC1` [Example 116, (2S)-cyclohexyl{[2-({[(2,6-dimethylphenyl)amino]carbonyl}amino)-4,5-difluorobenzoyl]amino}acetic acid], half-maximal inhibition under setting [1] (IC50) was put at 1630 nM. Against the preceding molecule, the IC50 is about 2.4-fold higher. As to `Cc1cc(C)c(NC(=O)Nc2cc3ccccc3cc2C(=O)NC(CCC(C)CC(C)(C)C)C(=O)O)c(C)c1` (stereo not shown) [Example 264, 5,7,7-trimethyl-2-({[3-({[(2,4,6-trimethylphenyl)amino]carbonyl}amino)-2-naphthalenyl]carbonyl}amino)octanoic acid], the IC50 under setting [2] was 120 nM. The same measure, in the same setting: to `O=C(Nc1cc2ccccc2cc1C(=O)NC1(C(=O)O)CCCCC1)Nc1c(Cl)cc(Cl)cc1Cl` [Example 281, 1-({[3-({[(2,4,6-trichlorophenyl)amino]carbonyl}amino)-2-naphthalenyl]carbonyl}amino)cyclohexanecarboxylic acid] belongs 1620 nM; to `COc1ccc(-c2ccc(C(=O)NC3(C(=O)O)CCCCCC3)c(NC(=O)Nc3c(C)cc(C)cc3C)c2)cc1` [Example 222, 1-({[4′-(methyloxy)-3-({[(2,4,6-trimethylphenyl)amino]carbonyl}amino)-4-biphenylyl]carbonyl}amino)cycloheptanecarboxylic acid], 24 nM. `Cc1cc(C)c(NC(=O)Nc2cc(-c3ccc([N+](=O)[O-])cc3)ccc2C(=O)N[C@H](C(=O)O)C2CCCCC2)c(C)c1` [Example 197, (2S)-Cyclohexyl({[4′-nitro-3-({[(2,4,6-trimethylphenyl)amino]carbonyl}amino)-4-biphenylyl]carbonyl}amino)ethanoic acid]: the 50% inhibitory concentration (IC50) under setting [1] was determined as 14 nM. For the molecule `O=C(Nc1sc(-c2ccc(F)cc2)cc1C(=O)O)Nc1c(Cl)cccc1Cl` [Example 418, 2-({[(2,6-dichlorophenyl)amino]carbonyl}amino)-5-(4-fluorophenyl)-3-thiophenecarboxylic acid], the half-inhibitory concentration (IC50) under setting [1] came to 2970 nM. Molecule `O=C(O)C[C@H](NC(=O)c1c(NC(=O)Nc2c(Cl)cccc2Cl)sc2c1CCCC2)C(=O)O` [Example 137, N-{[2-({[(2,6-dichlorophenyl)amino]carbonyl}amino)-4,5,6,7-tetrahydro-1-benzothien-3-yl]carbonyl}-L-aspartic acid] gave an IC50 under setting [1] of 4150 nM. Under setting [1], `COC(=O)[C@@H](NC(=O)c1sc(-c2cccnc2)cc1NC(=O)Nc1c(Cl)cccc1Cl)C1CCCCC1` [Example 404, methyl(2S)-cyclohexyl({[3-({[(2,6-dichlorophenyl)amino]carbonyl}amino)-5-(3-pyridinyl)-2-thienyl]carbonyl}amino)ethanoate] had an IC50 of 13200 nM. Same read-out and setting: then `O=C(Nc1ccccc1Cl)Nc1cc2ccccc2cc1C(=O)N[C@@H](CO)C(=O)O` [Example 28, N-[3-({[(2-chlorophenyl)amino]carbonyl}amino)-2-naphthoyl]-L-serine], with 24100 nM; and `Cc1cccc(C)c1NC(=O)Nc1cc2ccccc2cc1C(=O)N[C@@H](CO)C(=O)O` [Example 19, N-[3-({[(2,6-dimethylphenyl)amino]carbonyl}amino)-2-naphthoyl]-L-serine], with 2000 nM. Molecule `Cc1cc(C)c(NC(=O)Nc2cc3ccccc3cc2C(=O)N[C@H](CC(=O)OC(C)(C)C)C2CCCCC2)c(C)c1` [Example 337, 1,1-dimethylethyl (3R)-3-cyclohexyl-3-({[3-({[(2,4,6-trimethylphenyl)amino]carbonyl}amino)-2-naphthalenyl]carbonyl}amino)propanoate] came in with an IC50 under setting [2] of 5260 nM. `COc1ccc(-c2cc(NC(=O)Nc3c(C)cc(C)cc3C)c(C(=O)N[C@H](C(=O)O)C3CCCCC3)s2)cc1` [Example 439, (2S)-cyclohexyl({[5-[4-(methyloxy)phenyl]-3-({[(2,4,6-trimethylphenyl)amino]carbonyl}amino)-2-thienyl]carbonyl}amino)ethanoic acid] yielded an IC50 under setting [1] of 12 nM. Under setting [2], `CCCC(CCC)(NC(=O)c1cc2ccccc2cc1NC(=O)Nc1c(Cl)cccc1Cl)C(=O)O` [Example 316, N-{[3-({[(2,6-dichlorophenyl)amino]carbonyl}amino)-2-naphthalenyl]carbonyl}-2-propylnorvaline] showed an IC50 of 360 nM. Take `COc1ccc(-c2nc(C(=O)N[C@H](C(=O)O)C3CCCCC3)c(NC(=O)Nc3c(C)cccc3C(C)C)s2)cc1` [Example 486]: the concentration for half-maximal inhibition (IC50) under setting [1] is 1780 nM. This lies in the single-digit micromolar range.

`Cc1cccc(Cl)c1NC(=O)Nc1cc2ccccc2cc1C(=O)N[C@@H](CC(N)=O)C(=O)O` [Example 40, N-[3-({[(2-chloro-6-methylphenyl)amino]carbonyl}amino)-2-naphthoyl]-L-asparagine] came in with an IC50 under setting [1] of 420 nM. This IC50 lies about 4.2-fold lower than the previous one. In turn, `Cc1cccc(C)c1NC(=O)Nc1cc(F)c(F)cc1C(=O)N[C@@H](CC(=O)O)C(=O)O` [Example 78, N-[2-({[(2,6-dimethylphenyl)amino]carbonyl}amino)-4,5-difluorobenzoyl]-L-aspartic acid] returned an IC50 under setting [1] of 9110 nM. Compared with the last molecule, the IC50 is about 22-fold higher.
